From patent publication US20150274719A1, “AMINO-SUBSTITUTED IMIDAZO[1,2-A]PYRIDINECARBOXAMIDES AND THEIR USE” (BAYER PHARMA AKTIENGESELLSCHAFT, priority 2012, published 2015)

Biological target: T1, recombinant guanylate cyclase reporter cell line (Rattus norvegicus, UniProt P19686+P20595)
T1 construct: expressed in transfected cells; host or cells: recombinant reporter cell line
T1 sequence (P19686 1-690): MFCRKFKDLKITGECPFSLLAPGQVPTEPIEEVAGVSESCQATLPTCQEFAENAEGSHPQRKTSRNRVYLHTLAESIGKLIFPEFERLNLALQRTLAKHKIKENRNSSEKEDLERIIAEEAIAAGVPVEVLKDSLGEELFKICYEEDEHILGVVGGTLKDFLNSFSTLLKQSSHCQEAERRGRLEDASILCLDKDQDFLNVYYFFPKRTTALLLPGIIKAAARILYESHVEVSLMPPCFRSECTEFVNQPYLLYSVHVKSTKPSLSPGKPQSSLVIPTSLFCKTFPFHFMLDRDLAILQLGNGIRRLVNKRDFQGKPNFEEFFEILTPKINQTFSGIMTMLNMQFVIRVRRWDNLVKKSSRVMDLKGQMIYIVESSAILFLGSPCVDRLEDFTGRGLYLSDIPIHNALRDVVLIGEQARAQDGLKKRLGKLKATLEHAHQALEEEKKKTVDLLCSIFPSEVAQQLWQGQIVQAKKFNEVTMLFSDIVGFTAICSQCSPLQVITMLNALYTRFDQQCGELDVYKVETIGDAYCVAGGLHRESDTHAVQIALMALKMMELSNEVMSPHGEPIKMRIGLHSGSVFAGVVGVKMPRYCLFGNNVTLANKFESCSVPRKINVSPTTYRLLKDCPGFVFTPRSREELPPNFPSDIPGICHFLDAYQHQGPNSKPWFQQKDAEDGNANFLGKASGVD
T1 sequence (P20595 1-619): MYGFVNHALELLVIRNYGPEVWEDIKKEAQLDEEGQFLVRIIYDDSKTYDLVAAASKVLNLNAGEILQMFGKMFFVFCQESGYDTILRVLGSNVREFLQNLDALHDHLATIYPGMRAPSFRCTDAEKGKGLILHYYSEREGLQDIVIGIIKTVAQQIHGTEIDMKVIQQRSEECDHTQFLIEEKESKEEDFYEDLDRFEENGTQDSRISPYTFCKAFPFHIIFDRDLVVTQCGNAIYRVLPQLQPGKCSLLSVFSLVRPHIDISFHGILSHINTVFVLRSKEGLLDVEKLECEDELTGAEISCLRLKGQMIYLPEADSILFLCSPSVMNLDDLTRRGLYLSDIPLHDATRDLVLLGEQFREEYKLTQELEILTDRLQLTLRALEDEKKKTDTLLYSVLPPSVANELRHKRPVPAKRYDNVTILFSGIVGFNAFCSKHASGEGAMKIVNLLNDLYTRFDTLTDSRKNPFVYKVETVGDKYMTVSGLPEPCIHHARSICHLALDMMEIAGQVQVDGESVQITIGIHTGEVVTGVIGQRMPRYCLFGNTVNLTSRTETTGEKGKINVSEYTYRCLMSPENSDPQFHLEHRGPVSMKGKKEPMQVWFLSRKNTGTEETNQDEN
Assay: Action on recombinant guanylate cyclase reporter cell line
Type: cell-based
Conditions: in some cases mean values from individual determinations
Outline: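 Rat recombinant guanylate cyclase reporter cell line measures cellular activity. Value reported as MEC (minimal effective concentration), sometimes averaged over individual determinations.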

| MEC (minimal effective concentration) [µM] | Compound |
| --- | --- |
| 0.30 | Cc1nc2c(OCc3c(F)cccc3F)cccn2c1C(=O)NC(CN)CC(F)(F)F (single isomer, unassigned; enantiomer b) [Example 3, ent-N-(1-Amino-4,4,4-trifluorobutan-2-yl)-8-[(2,6-difluorobenzyl)oxy]-2-methylimidazo[1,2-a]-pyridine-3-carboxamide (Enantiomer B)] |
| 0.23 | Cc1nc2c(OCc3c(F)cccc3F)cccn2c1C(=O)NC(CN)CCCC(F)(F)F (single isomer, unassigned; enantiomer b) [Example 6, ent-N-(1-Amino-6,6,6-trifluorohexan-2-yl)-8-[(2,6-difluorobenzyl)oxy]-2-methylimidazo[1,2-a]-pyridine-3-carboxamide (Enantiomer B)] |
| 0.53 | Cc1nc2c(OCc3c(F)cccc3F)cccn2c1C(=O)NC(CN)c1ccc(Cl)cc1 (single isomer, unassigned; enantiomer b) [Example 15, ent-N-[2-Amino-1-(4-chlorophenyl)ethyl]-8-[(2,6-difluorobenzyl)oxy]-2-methylimidazo[1,2-a]-pyridine-3-carboxamide (Enantiomer B)] |
| 0.55 | Cc1nc2c(OCc3c(F)cccc3F)cccn2c1C(=O)NC(CN)c1ccccc1 (single isomer, unassigned; enantiomer b) [Example 18, ent-N-(2-Amino-1-phenylethyl)-8-[(2,6-difluorobenzyl)oxy]-2-methylimidazo[1,2-a]pyridine-3-carboxamide (Enantiomer B)] |
| 0.30 | CCCC(C)(N)CNC(=O)c1c(C)nc2c(OCc3c(F)cccc3F)cc(Cl)cn12 (single isomer, unassigned; enantiomer b) [Example 246, ent-N-(2-Amino-2-methylpentyl)-6-chloro-8-[(2,6-difluorobenzyl)oxy]-2-methylimidazo[1,2-a]-pyridine-3-carboxamide (Enantiomer B)] |
| 1.00 | COCC(N)CNC(=O)c1c(C)nc2c(OCc3c(F)cccc3F)cccn12 (single isomer, unassigned; enantiomer b) [Example 248, ent-N-(2-Amino-3-methoxypropyl)-8-[(2,6-difluorobenzyl)oxy]-2-methylimidazo[1,2-a]pyridine-3-carboxamide (Enantiomer B)] |
| 0.10 | Cc1nc2c(OCc3c(F)cccc3F)cccn2c1C(=O)NCC(C)(N)CCOCc1ccccc1 (single isomer, unassigned; enantiomer b) [Example 267, ent-N-[2-Amino-4-(benzyloxy)-2-methylbutyl]-8-[(2,6-difluorobenzyl)oxy]-2-methylimidazo[1,2-a]pyridine-3-carboxamide (Enantiomer B)] |
| 0.65 | Cc1cc(OCc2c(F)cccc2F)c2nc(C)c(C(=O)NCC(C)(N)CO)n2c1 (single isomer, unassigned; enantiomer b) [Example 269, ent-N-(2-Amino-3-hydroxy-2-methylpropyl)-8-[(2,6-difluorobenzyl)oxy]-2,6-dimethylimidazo-[1,2-a]pyridine-3-carboxamide (Enantiomer B)] |
| 0.3 | CCCC(C)(N)CNC(=O)c1c(C)nc2c(OCc3c(F)cccc3F)cc(OC)cn12 (single isomer, unassigned; enantiomer b) [Example 278, ent-N-(2-amino-2-methylpentyl)-8-[(2,6-difluorobenzyl)oxy]-6-methoxy-2-methylimidazo[1,2-a]pyridine-3-carboxamide (Enantiomer B)] |
| 0.65 | CCCC(C)(N)CNC(=O)c1c(C)nc2c(OCc3c(F)cccc3F)cc(N3CCOCC3)cn12 (single isomer, unassigned; enantiomer b) [Example 280, ent-N-(2-amino-2-methylpentyl)-8-[(2,6-difluorobenzyl)oxy]-2-methyl-6-(morpholin-4-yl)imidazo[1,2-a]pyridine-3-carboxamide (Enantiomer B)] |
| 0.3 | CCCC(C)(N)CNC(=O)c1c(C)nc2c(OCc3c(F)cccc3F)cc(C(F)F)cn12 (single isomer, unassigned; enantiomer b) [Example 290, ent-N-(2-amino-2-methylpentyl)-8-[(2,6-difluorobenzyl)oxy]-6-(difluoromethyl)-2-methyl-imidazo[1,2-a]pyridine-3-carboxamide (Enantiomer B)] |
| 0.30 | Cc1cc(OCc2c(F)cccc2F)c2nc(C)c(C(=O)NC3CCC3N)n2c1 (single isomer, unassigned; enantiomer b) [Example 329, ent-N-(2-aminocyclobutyl)-8-[(2,6-difluorobenzyl)oxy]-2,6-dimethylimidazo[1,2-a]pyridine-3-carboxamide (Enantiomer B)] |
| 1.00 | Cc1cc(OCc2c(F)cccc2F)c2nc(C)c(C(=O)NC3CCC3(C)N)n2c1 (single isomer, unassigned; enantiomer b) [Example 333, ent-N-[2-amino-2-methylcyclobutyl]-8-[(2,6-difluorobenzyl)oxy]-2,6-dimethylimidazo[1,2-a]pyridine-3-carboxamide (Enantiomer B)] |
| 0.55 | Cc1cc(OCc2c(F)cccc2F)c2nc(C)c(C(=O)NC3(C)CCC3(C)N)n2c1 (single isomer, unassigned; enantiomer b) [Example 337, ent-N-[(2-amino-1,2-dimethylcyclobutyl]-8-[(2,6-difluorobenzyl)oxy]-2,6-dimethylimidazo[1,2-a]pyridine-3-carboxamide (Enantiomer B)] |
| 0.30 | Cc1cc(OCc2c(F)cccc2F)c2nc(C)c(C(=O)NCC(N)C#N)n2c1 (single isomer, unassigned; enantiomer b) [Example 402, ent-N-(2-amino-2-cyanoethyl)-8-[(2,6-difluorobenzyl)oxy]-2,6-dimethylimidazo[1,2-a]pyridine-3-carboxamide (Enantiomer B)] |
| 0.30 | Cc1nc2c(OCc3c(F)cccc3F)cc(Cl)cn2c1C(=O)NC1CNCc2ccccc21 (single isomer, unassigned; ent-6) [Example 107, ent-6-chloro-8-[(2,6-difluorobenzyl)oxy]-2-methyl-N-(1,2,3,4-tetrahydroisoquinolin-4-yl)imidazo[1,2-a]pyridine-3-carboxamide] |
| 1.00 | Cc1nc2c(OCc3c(F)cccc3F)cc(Cl)cn2c1C(=O)NC1CNCc2ccccc21 (single isomer, unassigned; ent-6) [Example 108, ent-6-chloro-8-[(2,6-difluorobenzyl)oxy]-2-methyl-N-(1,2,3,4-tetrahydroisoquinolin-4-yl)imidazo[1,2-a]pyridine-3-carboxamide] |

| Compound | MEC (minimal effective concentration) [µM] |
| --- | --- |
| Cc1cc(OC(C)c2c(F)cccc2F)c2nc(C)c(C(=O)NCC(C)(C)N)n2c1 (single isomer, unassigned; enantiomer b) [Example 256, ent-N-(2-Amino-2-methylpropyl)-8-[1-(2,6-difluorophenyl)ethoxy]-2,6-dimethylimidazo[1,2-a]-pyridine-3-carboxamide (Enantiomer B)] | 3.00 |
